From the Kinase Knowledgebase extract (Sharma et al. 2016)

Experiments:
[1] = molecular target: PIK3CA (human) (UniProt P42336); experiment: Inhibition of PIK3CA Kinase Activity
[2] = molecular target: PIK3CB (Human) (UniProt P42338); experiment: Inhibition of PIK3CB Kinase Activity
[3] = molecular target: PIK3CG (human) (UniProt P48736); experiment: Inhibition of PIK3CG Kinase Activity
[4] = molecular target: PIK3CD (Human) (UniProt O00329); experiment: Inhibition of PIK3CD Kinase Activity
Sequence of PIK3CD (Human) (O00329 whole entry, looked up): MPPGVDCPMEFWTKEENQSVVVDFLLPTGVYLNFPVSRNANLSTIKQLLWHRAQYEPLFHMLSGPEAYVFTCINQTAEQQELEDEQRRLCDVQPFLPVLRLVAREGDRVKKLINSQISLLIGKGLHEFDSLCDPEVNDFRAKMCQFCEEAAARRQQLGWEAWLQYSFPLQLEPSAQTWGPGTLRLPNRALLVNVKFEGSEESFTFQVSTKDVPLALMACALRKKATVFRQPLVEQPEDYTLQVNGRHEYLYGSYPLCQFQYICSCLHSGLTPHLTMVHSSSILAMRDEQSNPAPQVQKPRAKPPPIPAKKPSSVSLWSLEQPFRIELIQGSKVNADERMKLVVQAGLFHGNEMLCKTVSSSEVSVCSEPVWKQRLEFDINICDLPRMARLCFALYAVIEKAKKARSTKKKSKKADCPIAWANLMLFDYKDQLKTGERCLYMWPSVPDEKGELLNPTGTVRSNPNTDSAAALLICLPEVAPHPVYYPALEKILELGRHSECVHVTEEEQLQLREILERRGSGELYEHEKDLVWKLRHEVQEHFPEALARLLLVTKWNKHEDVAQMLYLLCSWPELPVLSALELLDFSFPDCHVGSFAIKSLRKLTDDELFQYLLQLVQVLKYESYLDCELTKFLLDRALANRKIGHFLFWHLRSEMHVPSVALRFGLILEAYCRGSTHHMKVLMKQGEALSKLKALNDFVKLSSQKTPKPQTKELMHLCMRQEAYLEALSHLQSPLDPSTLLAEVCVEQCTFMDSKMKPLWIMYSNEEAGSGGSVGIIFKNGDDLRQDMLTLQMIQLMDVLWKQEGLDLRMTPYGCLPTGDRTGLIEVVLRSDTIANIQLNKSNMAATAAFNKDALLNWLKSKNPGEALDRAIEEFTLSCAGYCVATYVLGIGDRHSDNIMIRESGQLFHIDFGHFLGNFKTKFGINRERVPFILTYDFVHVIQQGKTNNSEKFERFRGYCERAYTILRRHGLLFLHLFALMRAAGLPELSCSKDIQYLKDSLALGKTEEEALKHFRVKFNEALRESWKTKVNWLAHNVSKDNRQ

Sequence of PIK3CA (human) (P42336 whole entry, looked up): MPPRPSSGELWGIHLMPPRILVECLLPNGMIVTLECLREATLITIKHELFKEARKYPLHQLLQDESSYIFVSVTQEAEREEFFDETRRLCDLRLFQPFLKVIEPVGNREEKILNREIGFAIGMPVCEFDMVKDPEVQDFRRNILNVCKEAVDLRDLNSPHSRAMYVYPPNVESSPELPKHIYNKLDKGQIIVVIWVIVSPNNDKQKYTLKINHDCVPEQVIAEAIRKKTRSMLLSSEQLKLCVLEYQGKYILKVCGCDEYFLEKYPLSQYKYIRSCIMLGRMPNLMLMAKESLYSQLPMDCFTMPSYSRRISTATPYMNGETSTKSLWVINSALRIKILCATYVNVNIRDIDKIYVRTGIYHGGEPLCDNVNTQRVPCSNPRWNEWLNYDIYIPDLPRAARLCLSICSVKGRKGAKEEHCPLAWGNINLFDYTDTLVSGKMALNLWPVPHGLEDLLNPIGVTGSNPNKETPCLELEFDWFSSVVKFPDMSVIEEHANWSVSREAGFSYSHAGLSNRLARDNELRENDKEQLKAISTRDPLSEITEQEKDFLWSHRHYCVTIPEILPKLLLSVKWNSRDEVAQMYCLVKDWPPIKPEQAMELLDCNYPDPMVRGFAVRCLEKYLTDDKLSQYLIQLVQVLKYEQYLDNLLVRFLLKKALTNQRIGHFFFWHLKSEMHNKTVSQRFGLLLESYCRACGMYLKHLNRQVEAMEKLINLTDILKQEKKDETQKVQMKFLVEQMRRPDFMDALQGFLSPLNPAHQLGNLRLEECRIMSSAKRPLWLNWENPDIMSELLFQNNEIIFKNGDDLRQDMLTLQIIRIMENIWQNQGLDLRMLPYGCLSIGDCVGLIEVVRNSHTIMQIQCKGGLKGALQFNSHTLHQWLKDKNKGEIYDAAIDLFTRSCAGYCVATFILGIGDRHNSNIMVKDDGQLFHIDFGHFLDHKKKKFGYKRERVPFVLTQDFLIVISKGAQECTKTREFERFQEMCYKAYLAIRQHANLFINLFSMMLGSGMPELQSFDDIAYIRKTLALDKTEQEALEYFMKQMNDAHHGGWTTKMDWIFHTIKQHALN
Sequence of PIK3CB (Human) (P42338 whole entry, looked up): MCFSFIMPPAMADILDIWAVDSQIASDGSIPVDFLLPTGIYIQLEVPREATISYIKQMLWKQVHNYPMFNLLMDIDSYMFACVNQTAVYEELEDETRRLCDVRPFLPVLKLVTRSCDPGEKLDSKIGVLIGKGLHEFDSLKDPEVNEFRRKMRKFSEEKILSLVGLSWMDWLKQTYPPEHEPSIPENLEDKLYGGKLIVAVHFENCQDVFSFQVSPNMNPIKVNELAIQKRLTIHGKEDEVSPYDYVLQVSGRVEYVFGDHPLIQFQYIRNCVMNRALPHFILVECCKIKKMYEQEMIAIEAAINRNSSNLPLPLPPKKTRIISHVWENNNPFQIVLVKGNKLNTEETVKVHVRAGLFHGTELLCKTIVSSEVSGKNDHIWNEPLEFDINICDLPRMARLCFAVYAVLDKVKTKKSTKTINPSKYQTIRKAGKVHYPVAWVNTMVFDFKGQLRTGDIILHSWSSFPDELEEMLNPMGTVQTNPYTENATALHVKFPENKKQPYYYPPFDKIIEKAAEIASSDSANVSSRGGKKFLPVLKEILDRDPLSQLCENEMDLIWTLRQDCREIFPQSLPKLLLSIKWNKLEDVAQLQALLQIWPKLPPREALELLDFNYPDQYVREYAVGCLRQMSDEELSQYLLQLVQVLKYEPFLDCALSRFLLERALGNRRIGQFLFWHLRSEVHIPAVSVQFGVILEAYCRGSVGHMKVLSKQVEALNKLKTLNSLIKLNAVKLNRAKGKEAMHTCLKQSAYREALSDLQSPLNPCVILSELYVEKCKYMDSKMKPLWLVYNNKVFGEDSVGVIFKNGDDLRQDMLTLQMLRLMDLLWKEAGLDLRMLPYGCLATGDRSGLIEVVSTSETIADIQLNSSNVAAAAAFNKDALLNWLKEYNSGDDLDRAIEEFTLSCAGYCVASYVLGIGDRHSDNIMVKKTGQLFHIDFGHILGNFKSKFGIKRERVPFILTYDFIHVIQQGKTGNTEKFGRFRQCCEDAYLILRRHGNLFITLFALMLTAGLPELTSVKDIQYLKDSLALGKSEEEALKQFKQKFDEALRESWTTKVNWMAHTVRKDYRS
Sequence of PIK3CG (human) (P48736 whole entry, looked up): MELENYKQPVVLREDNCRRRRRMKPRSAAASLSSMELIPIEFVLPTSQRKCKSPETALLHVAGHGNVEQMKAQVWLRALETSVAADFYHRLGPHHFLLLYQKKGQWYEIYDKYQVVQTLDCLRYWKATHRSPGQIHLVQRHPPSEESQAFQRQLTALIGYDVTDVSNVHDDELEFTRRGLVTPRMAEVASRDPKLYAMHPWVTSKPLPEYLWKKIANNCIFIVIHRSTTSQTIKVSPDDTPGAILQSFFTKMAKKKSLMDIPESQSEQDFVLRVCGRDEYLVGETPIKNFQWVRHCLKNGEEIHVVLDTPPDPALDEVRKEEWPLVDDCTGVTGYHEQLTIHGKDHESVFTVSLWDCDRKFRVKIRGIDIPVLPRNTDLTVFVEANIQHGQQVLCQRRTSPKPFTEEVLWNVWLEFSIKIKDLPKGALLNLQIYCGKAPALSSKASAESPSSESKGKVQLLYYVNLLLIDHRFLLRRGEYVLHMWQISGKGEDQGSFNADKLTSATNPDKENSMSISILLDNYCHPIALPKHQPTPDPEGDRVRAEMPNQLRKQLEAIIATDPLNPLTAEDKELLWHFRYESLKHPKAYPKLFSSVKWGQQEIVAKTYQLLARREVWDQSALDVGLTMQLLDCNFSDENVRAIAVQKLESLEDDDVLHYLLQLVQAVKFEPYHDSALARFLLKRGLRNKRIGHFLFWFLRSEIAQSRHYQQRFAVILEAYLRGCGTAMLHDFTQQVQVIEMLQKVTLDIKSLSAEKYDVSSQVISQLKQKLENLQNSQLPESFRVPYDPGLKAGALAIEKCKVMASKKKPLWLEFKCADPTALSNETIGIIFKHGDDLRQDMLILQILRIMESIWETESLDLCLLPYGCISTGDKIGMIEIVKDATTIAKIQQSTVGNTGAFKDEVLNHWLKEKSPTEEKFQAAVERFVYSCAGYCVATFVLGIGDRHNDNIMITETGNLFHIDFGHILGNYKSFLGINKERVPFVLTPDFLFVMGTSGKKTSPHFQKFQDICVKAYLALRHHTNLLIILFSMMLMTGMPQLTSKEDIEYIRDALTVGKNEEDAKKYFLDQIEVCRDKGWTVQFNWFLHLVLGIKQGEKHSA

Row | Compound | IC50 [1] [nM] | IC50 [2] [nM] | IC50 [3] [nM] | IC50 [4] [nM]
1 | Cc1cc(F)ccc1Oc1cccc2c(=O)cc(N3CCOCC3)[nH]c12 | 20 | 20 |  | 
2 | O=c1c2c(Cl)cccc2nc(CSc2ncnc3[nH]cnc23)n1-c1ccccc1-c1ccccc1 | > 2000 | > 2000 | > 2000 | 50
3 | Cc1cc(NCc2ccccc2)c2nc(N3CCOCC3)cc(=O)n2c1 | 50 | 50 | > 10000 | 
4 | O=c1c(O)c(-c2ccc(O)c(O)c2)oc2cc(O)cc(O)c12 | 3800 |  |  | 
